{"source": "paper PMC6933938", "about": "“Comparative physiological, metabolomic, and transcriptomic analyses reveal developmental stage-dependent effects of cluster bagging on phenolic metabolism in Cabernet Sauvignon grape berries” (BMC Plant Biology, 2019)", "target": "T1, VviFLS4 (Vitis vinifera, UniProt Q2PHJ7)", "T1 construct": "gene FLS4; pET-48b(+), printed as C-terminal 6xHis tag fusion; E. coli BL21(DE3), Ni2+ column; tag removal not mentioned", "T1 sequence (Q2PHJ7 1-335)": "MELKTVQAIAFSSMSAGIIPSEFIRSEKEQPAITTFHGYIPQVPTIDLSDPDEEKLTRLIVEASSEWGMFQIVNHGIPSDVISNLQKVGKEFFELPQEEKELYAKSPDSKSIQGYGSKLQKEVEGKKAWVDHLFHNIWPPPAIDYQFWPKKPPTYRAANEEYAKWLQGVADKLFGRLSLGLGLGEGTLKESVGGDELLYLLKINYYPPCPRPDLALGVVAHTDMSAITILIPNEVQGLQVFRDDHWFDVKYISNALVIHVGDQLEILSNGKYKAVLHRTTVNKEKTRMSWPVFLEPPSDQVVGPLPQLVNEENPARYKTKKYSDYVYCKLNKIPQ", "test": "HPLC-MS product analysis", "format": "biochemical", "conditions": "converted to kaempferol; 0.5 uM substrate, 10 mM alpha-ketoglutaric acid, 0.25 mM FeSO4, 10 mM ascorbic acid, 100 mM NaH2PO4 pH 6.0, 25 C, 1 h"}
{"smiles": "O=C1c2c(O)cc(O)cc2O[C@H](c2ccc(O)cc2)[C@H]1O", "note": "[dihydrokaempferol]", "values": [{"measurement": "HPLC-MS product analysis", "value": "DHK into kaempferol, and dihydroquercetin (DHQ) into quercetin, respectively"}]}
